Like-named read-outs stand apart in the source and are kept apart here. Non-standard residues stand in square brackets, D forms with d. Residues, ends and D or L forms follow the SMILES beside them. *: point of attachment. dNMeF = CN[C@H](Cc1ccccc1)C(=O)O; Cha = N[C@@H](CC1CCCCC1)C(=O)O; NMeK = CN[C@@H](CCCCN)C(=O)O; dNMeK = CN[C@H](CCCCN)C(=O)O; ClZ = O=C(OCc1ccccc1Cl)*; Bn = c1ccc(C*)cc1
Key:
[1] = tested on: HCT-116 colon cancer cells; experiment: 3H-thymidine uptake cytotoxicity assay; type: cell-based
[2] = tested on: colon cancers; conditions: drug of choice for colon cancer treatment; no reference given; cited from earlier work

Structure (SMILES) | cytotoxicity (in words) [1] | other results
CC(C)[C@H]1NC(=O)[C@@H](Cc2ccccc2)NC(=O)[C@H](Cc2ccccc2)NC(=O)[C@H](COCc2ccccc2)NC(=O)[C@H](CC2CCCCC2)NC1=O [Compound 20, Phe-D-Phe-D-Val-Cha-Ser(Bn)] (cyclo([Cha]S(Bn)F[dF][dV])) | little cytotoxic activity | –
O=c1[nH]cc(F)c(=O)[nH]1 [Compound 5-FU, 5-fluorouracil] | – | IC50 [2]: 5 µM
CC(C)C[C@@H]1NC(=O)[C@H](Cc2ccccc2)NC(=O)[C@H](CCCCN)NC(=O)[C@H](CC(C)C)NC(=O)[C@@H](C(C)C)NC1=O [Compound 37, Phe-Leu-D-Val-Leu-Lys] (cyclo(FL[dV]LK)) | inactive | –
CC(C)C[C@@H]1NC(=O)[C@H](Cc2ccccc2)NC(=O)[C@@H](Cc2ccccc2)NC(=O)[C@@H](CCCCNC(=O)OCc2ccccc2Cl)N(C)C(=O)[C@H](C(C)C)NC1=O [Compound 41, Phe-Leu-Val-N-Me-D-Lys(Cl-Cbz)-D-Phe] (cyclo(FLV[dNMeK](ClZ)[dF])) | not very potent at all | –
CC(C)[C@H]1NC(=O)[C@@H](Cc2ccccc2)N(C)C(=O)[C@H](Cc2ccccc2)NC(=O)[C@H](COCc2ccccc2)NC(=O)[C@H](CC2CCCCC2)NC1=O [Compound 19, Phe-N-Me-D-Phe-D-Val-Cha-Ser(Bn)] (cyclo([Cha]S(Bn)F[dNMeF][dV])) | – | half-life (Half-life (minutes) n1, n1): 45 min; half-life (Half-life (minutes) n2, n2): 30 min
CC(C)C[C@@H]1NC(=O)[C@H](C(C)C)NC(=O)[C@@H](Cc2ccccc2)N(C)C(=O)[C@H](Cc2ccccc2)NC(=O)[C@H](CCCCN)NC1=O [Compound 30, Phe-N-Me-D-Phe-Val-Leu-Lys] (cyclo(F[dNMeF]VLK)) | not active | –
CC(C)C[C@@H]1NC(=O)[C@H](Cc2ccccc2)NC(=O)[C@H](CCCCN)NC(=O)[C@H](CC(C)C)NC(=O)[C@H](C(C)C)NC1=O [Compound 32, Phe-Leu-Val-Leu-Lys] (cyclo(FLVLK)) | inactive | –
CC(C)C[C@@H]1NC(=O)[C@H](Cc2ccccc2)NC(=O)[C@@H](Cc2ccccc2)N(C)C(=O)[C@@H](CCCCNC(=O)OCc2ccccc2Cl)NC(=O)[C@H](C(C)C)NC1=O [Compound 42, Phe-Leu-Val-D-Lys(Cl-Cbz)-N-Me-D-Phe] (cyclo(FLV[dK](ClZ)[dNMeF])) | remarkable cytotoxicity | –
CC(C)C[C@@H]1NC(=O)[C@H](Cc2ccccc2)NC(=O)[C@H](CCCCN)N(C)C(=O)[C@H](CC(C)C)NC(=O)[C@H](C(C)C)NC1=O [Compound 35, Phe-Leu-Val-Leu-N-Me-Lys] (cyclo(FLVL[NMeK])) | inactive | –

Reference: paper PMC2933939 (Bioorganic & medicinal chemistry, 2010)
